From the NIST ThermoML archive (doi:10.1016/j.jct.2008.06.016)

Test: molar heat capacity at constant pressure
Conditions: 101.33 kPa, Crystal, Small sample (50 mg) DSC

NC(=O)c1ccccc1O [2-hydroxybenzamide]
Conditions | molar heat capacity at constant pressure [J/K/mol]
280.4 K | 124.1
285.4 K | 126.3
290.4 K | 128.7
295.4 K | 130.9
300.4 K | 133.1
305.4 K | 135.6
310.4 K | 138
315.4 K | 140.5
320.4 K | 142.9
325.4 K | 145.5
330.4 K | 148.1
335.4 K | 150.5
340.4 K | 153.1
345.4 K | 155.6
350.4 K | 158.2
355.4 K | 160.6
360.4 K | 163.3
365.4 K | 165.6
370.4 K | 168.1
375.4 K | 170.3
380.4 K | 172.9
385.4 K | 175.4
390.4 K | 177.9
395.4 K | 180.6

O=C(O)c1ccccc1O [2-hydroxybenzoic acid]
Conditions | molar heat capacity at constant pressure [J/K/mol]
280.4 K | 128.5
285.5 K | 130
290.5 K | 131.6
295.4 K | 133.5
300.4 K | 135.4
305.4 K | 137.4
310.4 K | 139.4
315.4 K | 141.4
320.4 K | 143.5
325.4 K | 145.5
330.4 K | 147.6
335.4 K | 149.8
340.4 K | 151.8
345.4 K | 154.1
350.4 K | 156.2
355.4 K | 158.2
360.4 K | 160.3
365.4 K | 162.3
370.4 K | 164.2
375.4 K | 165.9
380.4 K | 168
385.4 K | 170.1
390.4 K | 172.1
395.5 K | 173.8
400.5 K | 175.6
405.5 K | 177.5

O=C(O)c1cccc(O)c1 [3-hydroxybenzoic acid]
Conditions | molar heat capacity at constant pressure [J/K/mol]
280.4 K | 134.6
285.5 K | 136.8
290.5 K | 138.9
295.4 K | 141.2
300.4 K | 143.5
305.4 K | 145.8
310.4 K | 147.9
315.4 K | 150.2
320.4 K | 152.7
325.5 K | 155
330.5 K | 157.4
335.5 K | 159.7
340.5 K | 162.2
345.5 K | 164.5
350.4 K | 166.9
355.4 K | 169.1
360.4 K | 171.3
365.4 K | 173.7
370.4 K | 175.9
375.4 K | 177.9
380.4 K | 180.8
385.4 K | 183.8
390.5 K | 186.3
395.5 K | 188.7
400.5 K | 190.6
405.5 K | 192.6
410.5 K | 194.6
415.5 K | 196.6
420.5 K | 198.3
425.5 K | 200.3
430.5 K | 202.5
435.5 K | 205
440.5 K | 207.5
445.5 K | 209.9
450.5 K | 212.1
455.5 K | 214.8
460.4 K | 218.8

O=C(O)c1ccc(O)cc1 [4-hydroxybenzoic acid]
Conditions | molar heat capacity at constant pressure [J/K/mol]
280.8 K | 138.9
285.8 K | 141.3
290.8 K | 143.5
295.8 K | 145.7
300.7 K | 148
305.8 K | 149.7
310.8 K | 151.8
315.8 K | 154.6
320.8 K | 156.4
325.8 K | 158.7
330.8 K | 161.4
335.8 K | 163.8
340.8 K | 166.3
345.8 K | 168.6
350.8 K | 171.1
355.8 K | 173.4
360.8 K | 175.5
365.7 K | 177.8
370.7 K | 180
375.7 K | 182
380.8 K | 184.4
385.8 K | 186.7
390.8 K | 188.9
395.8 K | 191
400.8 K | 193.1
405.8 K | 195.1
410.8 K | 197
415.8 K | 198.7
420.8 K | 200.4
425.8 K | 202.2
430.8 K | 204.5
435.8 K | 207.1
440.8 K | 209.5
445.8 K | 211.6
450.8 K | 213.8
455.8 K | 215.9
460.7 K | 218.2
